{
  "source": "patent US11098081B2",
  "about": "“Epitope tag and method for detection and/or purification of tagged polypeptides” (ChromoTek GmbH, priority 2015, dated 2021)",
  "key": {"BC2 nanotrap [1]": {"test_system": "BC2 nanotrap", "sequence (as listed by the source)": "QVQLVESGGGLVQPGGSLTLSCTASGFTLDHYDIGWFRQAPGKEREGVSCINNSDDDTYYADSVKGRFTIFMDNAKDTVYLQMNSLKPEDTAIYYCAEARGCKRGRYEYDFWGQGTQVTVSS", "assay": "Immunoprecipitation of BC2-tagged proteins from HEK293T cell lysates with the BC2 nanotrap", "type": "binding", "details": "soluble protein fraction of HEK293T cells, immunoblot", "experimental": "(d) The BC2 nanotrap binds BC2-tagged proteins from human cell lysates irrespectively whether the BC2 tag is located at the N- or the C-terminus. For immunoprecipitation of BC2-tagged proteins soluble protein fractions of HEK293T cells expressing BC2TeGFP, eGFPBC2T or solely eGFP were incubated with the BC2 nanotrap as described in (a). Input (I), non-bound (NB) and bound fractions (B) were separated by SDS-PAGE and visualized either by Coomassie Blue staining (top) or immunoblot analysis (bottom).\n(a) For immunoprecipitation soluble protein fractions of HEK293T cells either expressing eGFP-PCNA (control) or BC2-tagged eGFP-PCNA (eGFP-PCNABC2T) (left panel) or mCherry-Vimentin (mCherry-VIM, control) or BC2-lagged mCherry-VIM (mCherry-VIMBC2T) were incubated with the BC2 nanotrap. Input (I), non-bound (NB) and bound fractions (B) were separated by SDS-PAGE and visualized either by immunoblot analysis using anti-PCNA or anti-Vimentin antibodies (upper panel). As loading control, blots were probed with an anti-GAPDH antibody (lower panel).\nThe BC2-capture system was further analyzed for one-step purification of recombinant proteins derived from human cells Specifically, it was investigated whether the terminal position of the BC2-tag has an impact on binding. […]\nNext, it was tested whether the BC2 nanotrap can precipitate BC2-tagged cellular components of the intermediate filaments or the nuclear replication machinery BC2T was genetically fused either to mCherry-vimentin (mCherry-VIMBC2T) or eGFP-PCNA (eGFP-PCNABC2T) and both constructs were expressed in HEK293T cells. […] Soluble protein extracts were incubated with the BC2 nanotrap and whole lysate (input), non-bound and bound fractions were analyzed by immunoblotting using anti-vimentin or anti-PCNA antibodies. […]\nHEK293T cells transiently expressing eGFP, eGFPBC2T or BC2TeGFP, eGFP-PCNA, eGFP-PCNABC2T, mCherry-Vimentin, mCherry-VimentinBC2T were washed and harvested in phosphate buffered saline (PBS), snap-frozen in liquid nitrogen and stored at −20° C. Cell pellets were homogenized in 200 μl lysis buffer (10 mM Tris/Cl pH 7.3, 150 mM NaCl, 0.5% NP40, 1 μg DNaseI, 2 mM MgCl2, 2 mM PMSF, 1× protease inhibitor mix M (Serva) by repealed pipetting for 40 min on ice. After a centrifugation step (10 min at 18.000×g) the protein concentration of each lysate was determined using a Pierce BCA Protein Assay Kit (Thermo Fisher Scientific) according to manufacturer's protocol and the protein solutions were adjusted with dilution buffer (10 mM Tris/Cl pH 7.5, 150 mM NaCl, 2 mM PMSF) to a concentration of 1 mg/ml, 2% of the supernatant were added to SDS-containing sample buffer (referred to as input). […] Samples were analyzed by SDS-PAGE followed by immunoblotting. […]"}, "BC2-Nb": {"test_system": "BC2-Nb", "sequence (as listed by the source)": "as above", "assay": "Biolayer interferometry of immobilised biotinylated BC2T peptides with BC2-Nb", "type": "binding, Vicugna pacos", "details": "for kon (M^−1s^−1): association rate constant; for Kd: biotinylated peptide on Streptavidin biosensor, BC2-Nb 5-50 nM, 1:1 binding model; for koff (s^−1): dissociation rate constant", "experimental": "Biolayer interferometry (BLI)-based affinity measurements were used to assess two improved variations of the original BC2T sequence (a: […], pTag1 SEQ ID NO:33, b. […], pTag2 SEQ ID NO:34) in comparison with the original BC2T sequence (c: BC2T SEQ ID NO:4) BC2T and improved variations thereof were synthesized as peptides with an N-terminal biotin attached through an ethylene glycol linker and immobilised on Streptavidin biosensors. Binding kinetics were analysed by incubating immobilised peptides with 4-5 concentrations of BC2-Nb (5-50 nM) and evaluated using a 1:1 binding model.\nListed are the dissociation constant (KD), the association […] and dissociation (koff) rate constants and markers of the quality of fit of a 1:1 binding model (χ^2, R^2). The constants reported for original BC2T differ from those listed in Table 1 because kinetics were analysed using a different method.\nThe affinity measurements of BC2-Nb to BC2T and improved variations pTag1 and pTag2 were performed using biolayer interferometry using a BLItz system instrument (fortéBIO). Biotinylated peptide of BC2T and its variations were immobilised on Streptavidin biosensors (fortéBIO). The loaded sensor was sequentially dipped into BLItz buffer (phosphate buffered saline, 0.1% (m/v) BSA, 0.02% (v/v) Tween20) for 120 s to determine base line signal, in a solution of BC2-Nb in BLItz buffer (concentration of 5-50 nM) for 120 s to determine association and in BLItz buffer for 600 s to determine dissociation. The shaking rate was 1200 rpm. As a reference, each peptide was also incubated with BLItz buffer only according to the protocol above. In a control experiment, Streptavidin biosensors were incubated with BC2-Nb without prior peptide immobilisation. The sensor was regenerated by sequential dips into 10 mM glycine pH 2.0 and BLItz buffer (repeated three times). Raw data were analysed using the software BLItz Pro (fortéBio) and a 1:1 binding model."}, "BC2 nanotrap [2]": {"test_system": "BC2 nanotrap", "assay": "Elution of bound BC2-tagged protein from the BC2 nanotrap", "type": "binding", "details": "for GFPBC2T detected in elution fraction: competitive elution", "experimental": "[…] Aliquots of released (R) and bound (B) fractions were analyzed by immunoblotting with an anti-GFP antibody.\nFor the elution experiments 40 μl of BC2 nanotrap (slurry) were incubated with 400 μl soluble protein extract (c=1 mg/ml) derived from E. coli cells expressing GFPBC2T for 1 h at 4° C. on an end-over-end rotor. After a centrifugation step (2500×g, 4° C., 2 min) the supernatant was discarded and the beads were washed four times in ice-cold PBS including a cup change after the second washing step. Subsequently, beads were pelleted and incubated with 80 μl of the indicated elution conditions for 15 min at RT. […] 0.1 mM or 1 mM BC2-peptide dissolved in 0.2 M Tris/Cl pH 7.4, 150 mM NaCl; acidic elution: 0.2 M Glycine-HCl adjusted to pH 1. pH 2 or pH 3; alkaline elution: 0 mM. 1 mM, 10 mM or 100 mM NaOH; elution with sodium thiocyanate. 0 M, 1 M, 2 M, or 3 M NaSCN. The eluates were collected and boiled in 1×SDS containing sample buffer and the remaining beads were washed twice in PBS before boiling in 40 μl 2× sample buffer. 10% of each elution (release, R) and bead bound (bound, B) fraction were analyzed by SDS-PAGE and immunoblotting using an anti-GFP antibody."}, "BC2 nanotrap [3]": {"test_system": "BC2 nanotrap", "assay": "Immunoprecipitation of BC2-tagged GFP from E. coli lysate with the BC2 nanotrap", "type": "binding", "details": "soluble protein fraction of E. coli, SDS-PAGE, Coomassie and/or anti-GFP immunoblot"}},
  "note": "Ends that are not written are not given here.",
  "data": [
    {"substance": "BC2TeGFP: modified GFP comprising the BC2-tag on the N-terminus, expressed in HEK293T cells (PDRKAAVSHWQQ-eGFP; also: BC2 tag fused to the N-terminus of eGFP)", "values": [
      {"measurement": "precipitation by the BC2 nanotrap from HEK293T lysate", "setting": "BC2 nanotrap [1]", "value": "efficiently precipitated"}
    ]},
    {"substance": "ADRVRAVSHWSS [pTag2]", "values": [
      {"measurement": "kon (M^−1s^−1)", "setting": "BC2-Nb", "value": "1.1 ± 0.1 × 10^5 M^−1s^−1"},
      {"measurement": "Kd", "setting": "BC2-Nb", "value": 1.9, "unit": "nM"},
      {"measurement": "koff (s^−1)", "setting": "BC2-Nb", "value": "2.0 ± 0.1 × 10^−4 s^−1"}
    ]},
    {"substance": "GFPBC2T: GFP with a C-terminal BC2 tag, expressed in E. coli", "values": [
      {"measurement": "elution with MgCl2", "setting": "BC2 nanotrap [2]; MgCl2 0.5 M-4 M, data not shown", "value": "does not elute"},
      {"measurement": "release of bound protein", "setting": "BC2 nanotrap [2]; alkaline elution, pH 11 and 12", "value": "40-80%"},
      {"measurement": "precipitation by the BC2 nanotrap from E. coli lysate", "setting": "BC2 nanotrap [3]", "value": "quantitatively precipitates"}
    ]},
    {"substance": "PDRVRAVSHWSS [pTag1]", "values": [
      {"measurement": "dissociation rate constant koff slower than for original BC2T", "setting": "BC2-Nb", "value": 7, "unit": "×"},
      {"measurement": "kon (M^−1s^−1)", "setting": "BC2-Nb", "value": "9.2 ± 0.5 × 10^4 M^−1s^−1"},
      {"measurement": "Kd", "setting": "BC2-Nb", "value": 0.7, "unit": "nM"},
      {"measurement": "koff (s^−1)", "setting": "BC2-Nb", "value": "6.8 ± 0.4 × 10^−5 s^−1"}
    ]},
    {"substance": "eGFP-PCNABC2T: BC2T genetically fused to the C-terminus of eGFP-PCNA", "values": [
      {"measurement": "precipitation by the BC2 nanotrap from HEK293T lysate", "setting": "BC2 nanotrap [1]", "value": "efficiently precipitated"}
    ]},
    {"substance": "PDRKAAVSHW (Epitope peptide 10 aa) [BC2T-10]", "values": [
      {"measurement": "precipitation by the BC2 nanotrap from E. coli lysate", "setting": "BC2 nanotrap [3]", "value": "efficiently recognized"}
    ]},
    {"substance": "RKAAVSHW (Epitope peptide 8 aa) [BC2T-8]", "values": [
      {"measurement": "precipitation by the BC2 nanotrap from E. coli lysate", "setting": "BC2 nanotrap [3]", "value": "efficiently recognized"}
    ]},
    {"substance": "GFPBC2T-10: GFP C-terminally fused to BC2T-10 ({GFP}-PDRKAAVSHW; also: BC2T-10 tag fused to the C-terminus of GFP)", "values": [
      {"measurement": "precipitation by the BC2 nanotrap from E. coli lysate", "setting": "BC2 nanotrap [3]", "value": "in a comparable manner as GFP tagged with the original BC2T"}
    ]},
    {"substance": "eGFPBC2T: modified GFP comprising the BC2-tag on the C-terminus, expressed in HEK293T cells (eGFP-PDRKAAVSHWQQ; also: BC2 tag fused to the C-terminus of eGFP)", "values": [
      {"measurement": "precipitation by the BC2 nanotrap from HEK293T lysate", "setting": "BC2 nanotrap [1]", "value": "efficiently precipitated"}
    ]},
    {"substance": "GFPBC2T-8: GFP C-terminally fused to BC2T-8 ({GFP}-RKAAVSHW; also: BC2T-8 tag fused to the C-terminus of GFP)", "values": [
      {"measurement": "precipitation by the BC2 nanotrap from E. coli lysate", "setting": "BC2 nanotrap [3]", "value": "in a comparable manner as GFP tagged with the original BC2T"}
    ]},
    {"substance": "mCherry-VIMBC2T: BC2T genetically fused to the C-terminus of mCherry-Vimentin", "values": [
      {"measurement": "precipitation by the BC2 nanotrap from HEK293T lysate", "setting": "BC2 nanotrap [1]", "value": "efficiently precipitated"}
    ]},
    {"substance": "PDRKAAVSHWQQ [BC2T]", "values": [
      {"measurement": "GFPBC2T detected in elution fraction", "setting": "BC2 nanotrap [2]; 0.1 mM BC2 peptide", "value": "~60", "unit": "%"},
      {"measurement": "GFPBC2T detected in elution fraction", "setting": "BC2 nanotrap [2]; 1 mM BC2 peptide", "value": "~80", "unit": "%"},
      {"measurement": "kon (M^−1s^−1)", "setting": "BC2-Nb", "value": "1.9 ± 0.1 × 10^5 M^−1s^−1"},
      {"measurement": "Kd", "setting": "BC2-Nb", "value": 2.6, "unit": "nM"},
      {"measurement": "koff (s^−1)", "setting": "BC2-Nb", "value": "5.0 ± 0.1 × 10^−4 s^−1"}
    ]}
  ]
}
